Values of other authors in patent US20030099724A1, “Compounds for prevention of diabetic retinopathy” (priority 2001, published 2003).

What was measured:
diabetic retinopathy = settings: rat models

SMILES | solubility in alcohol (alcohol) | solubility in water (water) | progression of diabetic retinopathy (diabetic retinopathy)
CCOC(=O)C1=C(COCCN)NC(C)=C(C(=O)OC)C1c1ccccc1Cl (stereo not drawn) [Amlodipine besylate, amlodipine besylate] | sparingly soluble | slightly soluble | 
N=C(N)NN [amino guanidine] |  |  | retards the progression of diabetic retinopathy
